Test results published in patent publication US10316017B2, “COT modulators and methods of use thereof” (Gilead Sciences, Inc., priority 2015, dated 2019).

Target: T1, human Cot catalytic domain (30-397 amino acids) (Homo sapiens, UniProt P41279)
T1 construct: Purified recombinant human Cot catalytic domain (30-397 amino acids) was purchased from Cama Biosciences; purchased Cama Biosciences (so in the source)
Test: High Throughput Cot Biochemical Assay (KinEASE TR-FRET)
Conditions: Cot KinEASE TR-FRET, 400 μM ATP; read-out: IC50 HTRF
Experimental: Example 61: High Throughput Cot Biochemical Assay
In this assay, Cot-catalyzes the phosphorylation of a XL665-labeled peptide substrate. Europium conjugated phospho-tyrosine specific antibody binds the resulting phosphorylated peptide. […] Purified recombinant human Cot catalytic domain (30-397 amino acids) was purchased from Cama Biosciences. […] The standard 5 μL reaction mixture contained 400 μM ATP, 1 μM STK3 peptide, 5 nM of Cot in reaction buffer (10 mM MOPS, pH 7.0, 0.02% NaN3, 0.5 mg/mL BSA, 10 mM MgOAc, 1 mM DTT, 0.025% NP-40, 1.5% glycerol) and 0.1% DMSO.

T1 sequence (P41279 30-397): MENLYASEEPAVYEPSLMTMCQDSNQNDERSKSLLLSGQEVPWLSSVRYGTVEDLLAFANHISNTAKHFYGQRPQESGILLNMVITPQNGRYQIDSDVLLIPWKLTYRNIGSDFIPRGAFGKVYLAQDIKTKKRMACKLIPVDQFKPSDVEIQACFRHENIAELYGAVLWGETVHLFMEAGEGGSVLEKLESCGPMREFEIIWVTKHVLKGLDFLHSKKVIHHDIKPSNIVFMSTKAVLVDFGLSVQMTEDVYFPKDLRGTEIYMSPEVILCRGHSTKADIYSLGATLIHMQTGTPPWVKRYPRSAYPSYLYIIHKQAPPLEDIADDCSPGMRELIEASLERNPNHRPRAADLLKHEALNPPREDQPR

Structure (SMILES): Cc1cc2ncc(C#N)c(Nc3ccc(F)c(Cl)c3)c2cc1NC(c1ccc(F)cc1)c1cn(C)nn1 (stereo not shown) [Example 773, 4-((3-chloro-4-fluorophenyl)amino)-6-(((4-fluorophenyl)(1-methyl-1H-1,2,3-triazol-4-yl)methyl)amino)-7-methylquinoline-3-carbonitrile]
- IC50: 1.86 µM

Structure (SMILES): N#Cc1cnc2c(Cl)cc(N[C@@H](c3ccccc3)c3cn(C4CC5(CNC5)C4)nn3)cc2c1Nc1ccc(F)c(Cl)c1 [Example 775, (S)-6-(((1-(2-azaspiro[3.3]heptan-6-yl)-1H-1,2,3-triazol-4-yl)(phenyl)methyl)amino)-8-chloro-4-((3-chloro-4-fluorophenyl)amino)quinoline-3-carbonitrile]
- IC50: 0.005 µM

Structure (SMILES): N#Cc1cnc2c(Cl)cc(NC(c3ccc(F)cc3)c3nccs3)cc2c1Nc1ccc(F)c(Cl)c1 (stereo not shown) [Example 782, 8-chloro-4-((3-chloro-4-fluorophenyl)amino)-6-(((4-fluorophenyl)(thiazol-2-yl)methyl)amino)quinoline-3-carbonitrile]
- IC50: 0.444 µM

Structure (SMILES): N#Cc1cnc2c(Cl)cc(NC(c3ccc(F)cc3)c3ncco3)cc2c1Nc1ccc(F)c(Cl)c1 (stereo not shown) [Example 783, 8-chloro-4-((3-chloro-4-fluorophenyl)amino)-6-(((4-fluorophenyl)(oxazol-2-yl)methyl)amino)quinoline-3-carbonitrile]
- IC50: 0.291 µM

Structure (SMILES): CC(C)(C)N1CCC(n2cc([C@@H](Nc3cc(Cl)c4ncc(C#N)c(Nc5cccc(-n6nccn6)c5)c4c3)c3ccccc3)nn2)CC1 [Example 785, (S)-4-((3-(2H-1,2,3-triazol-2-yl)phenyl)amino)-6-(((1-(1-(tert-butyl)piperidin-4-yl)-1H-1,2,3-triazol-4-yl)(phenyl)methyl)amino)-8-chloroquinoline-3-carbonitrile]
- IC50: 0.782 µM

Structure (SMILES): CC1(C)C[C@H](n2cc([C@H](Nc3cc(Cl)c4ncc(C#N)c(Nc5ccc(F)c(Cl)c5)c4c3)c3ccccc3)nn2)CCN1 [Example 788, 8-chloro-4-((3-chloro-4-fluorophenyl)amino)-6-(((R)-(1-((R)-2,2-dimethylpiperidin-4-yl)-1H-1,2,3-triazol-4-yl)(phenyl)methyl)amino) quinoline-3-carbonitrile]
- IC50: 1.01 µM

Structure (SMILES): CC1(C)C[C@H](n2cc([C@H](Nc3cc(Cl)c4ncc(C#N)c(Nc5ccc(F)c(Cl)c5)c4c3)c3ccccc3)nn2)CCN1 [Example 789, 8-chloro-4-((3-chloro-4-fluorophenyl)amino)-6-(((R)-(1-((R)-2,2-dimethylpiperidin-4-yl)-1H-1,2,3-triazol-4-yl)(phenyl)methyl)amino) quinoline-3-carbonitrile]
- IC50: 0.657 µM

Structure (SMILES): COc1cc2ncc(C#N)c(Nc3ccc(F)c(Cl)c3)c2cc1NC(c1ccc(F)cc1)c1cn(C)nn1 (stereo not shown) [Example 798, 4-((3-chloro-4-fluorophenyl)amino)-6-(((4-fluorophenyl)(1-methyl-1H-1,2,3-triazol-4-yl)methyl)amino)-7-methoxyquinoline-3-carbonitrile]
- IC50: 7.92 µM

Structure (SMILES): N#Cc1cnc2ccc(NC(c3ccc(F)cc3)c3ccncn3)cc2c1Nc1ccc(F)c(Cl)c1 (stereo not shown) [Example 799, 4-((3-chloro-4-fluorophenyl)amino)-6-(((4-fluorophenyl)(pyrimidin-4-yl)methyl)amino)quinoline-3-carbonitrile]
- IC50: 1.48 µM

Structure (SMILES): N#Cc1cnc2c(Cl)cc(NC(c3ccc(F)cc3)c3ncccn3)cc2c1Nc1ccc(F)c(Cl)c1 (stereo not shown) [Example 800, 8-chloro-4-((3-chloro-4-fluorophenyl)amino)-6-(((4-fluorophenyl)(pyrimidin-2-yl)methyl)amino)quinoline-3-carbonitrile]
- IC50: > 10 µM

Structure (SMILES): N#Cc1cnc2c(Cl)cc(NC(c3ccc(F)cc3)c3cnccn3)cc2c1Nc1ccc(F)c(Cl)c1 (stereo not shown) [Example 801, 8-chloro-4-((3-chloro-4-fluorophenyl)amino)-6-(((4-fluorophenyl)(pyrazin-2-yl)methyl)amino)quinoline-3-carbonitrile]
- IC50: 1.07 µM

Structure (SMILES): N#Cc1cnc2c(Cl)cc(NC(c3ccc(F)cc3)c3cocn3)cc2c1Nc1ccc(F)c(Cl)c1 (stereo not shown) [Example 807, 8-chloro-4-((3-chloro-4-fluorophenyl)amino)-6-(((4-fluorophenyl)(oxazol-4-yl)methyl)amino)quinoline-3-carbonitrile]
- IC50: 0.437 µM

Structure (SMILES): N#Cc1cnc2c(Cl)cc(N[C@@H](c3ccc(F)cc3)c3cn(C4COC4)nn3)cc2c1Nc1ccc(F)c(Cl)c1 [Example 810, (S)-8-chloro-4-((3-chloro-4-fluorophenyl)amino)-6-(((4-fluorophenyl)(1-(oxetan-3-yl)-1H-1,2,3-triazol-4-yl)methyl)amino)quinoline-3-carbonitrile]
- IC50: 0.012 µM

Structure (SMILES): CC(C)(C)n1cc([C@@H](Nc2cc(Cl)c3ncc(C#N)c(Nc4ccc(F)c(Cl)c4)c3c2)c2ccc(F)cc2)nn1 [Example 811, (S)-6-(((1-(tert-butyl)-1H-1,2,3-triazol-4-yl)(4-fluorophenyl)methyl)amino)-8-chloro-4-((3-chloro-4-fluorophenyl)amino)quinoline-3-carbonitrile]
- IC50: 0.034 µM

Structure (SMILES): CC(C)(CC(=O)O)n1cc([C@@H](Nc2cc(Cl)c3ncc(C#N)c(Nc4ccc(F)c(Cl)c4)c3c2)c2ccc(F)cc2)nn1 [Example 812, (S)-3-(4-(((8-chloro-4-((3-chloro-4-fluorophenyl)amino)-3-cyanoquinolin-6-yl)amino)(4-fluorophenyl)methyl)-1H-1,2,3-triazol-1-yl)-3-methylbutanoic acid]
- IC50: 0.794 µM

Structure (SMILES): N#Cc1cnc2c(Cl)cc(NC(c3ccc(F)cc3)c3cn(C[C@H]4CCCN4)nn3)cc2c1Nc1ccc(F)c(Cl)c1 (stereo partly drawn) [Example 817, 8-chloro-4-((3-chloro-4-fluorophenyl)amino)-6-(((4-fluorophenyl)(1-(((R)-pyrrolidin-2-yl)methyl)-1H-1,2,3-triazol-4-yl)methyl)amino)quinoline-3-carbonitrile]
- IC50: 0.007 µM

Structure (SMILES): CN(C)C(=O)N1CCC[C@@H]1Cn1cc(C(Nc2cc(Cl)c3ncc(C#N)c(Nc4ccc(F)c(Cl)c4)c3c2)c2ccc(F)cc2)nn1 (stereo partly drawn) [Example 818, (2R)-2-((4-(((8-chloro-4-((3-chloro-4-fluorophenyl)amino)-3-cyanoquinolin-6-yl)amino)(4-fluorophenyl)methyl)-1H-1,2,3-triazol-1-yl)methyl)-N,N-dimethylpyrrolidine-1-carboxamide]
- IC50: 0.447 µM

Structure (SMILES): CCN1CCC(n2cc([C@@H](Nc3cc(Cl)c4ncc(C#N)c(Nc5ccc(F)c(Cl)c5)c4c3)c3ccc4ccccc4c3)nn2)CC1 [Example 820, (S)-8-chloro-4-((3-chloro-4-fluorophenyl)amino)-6-(((1-(1-ethylpiperidin-4-yl)-1H-1,2,3-triazol-4-yl)(naphthalen-2-yl)methyl)amino)quinoline-3-carbonitrile]
- IC50: 0.023 µM

Structure (SMILES): N#Cc1cnc2c(Cl)cc(N[C@@H](c3ccc(F)cc3)c3cn(C4CCN(C5CC5)CC4)nn3)cc2c1Nc1ccc(F)c(Cl)c1 [Example 821, (S)-8-chloro-4-((3-chloro-4-fluorophenyl)amino)-6-(((1-(1-cyclopropylpiperidin-4-yl)-1H-1,2,3-triazol-4-yl)(4-fluorophenyl)methyl)amino) quinoline-3-carbonitrile]
- IC50: 0.021 µM
